Columns and labels:
hERG channel = biological target: T1, hERG channel (Homo sapiens, UniProt Q12809); assay: hERG channel inhibition assay (patch-clamp, CHOhERG cells); assay type: cell-based; conditions: for IC20: human, CHO cells stably expressing hERG (CHOhERG); for IC20 / IC50: patch-clamp, CHOhERG cells; for hERG IC20/TLR7 IC50 / hERG IC20/TLR8 IC50 / hERG IC20/TLR9 IC50: safety ratio
T1 construct: expressed in transfected cells; host or cells: CHO (Chinese hamster ovary)
How it was run: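 Whole-cell voltage-clamp recordings used CHO cells stably expressing human hERG, with IKhERG evoked by a voltage protocol at 0.1 Hz. Increasing compound concentrations were applied, each for 3–10 min to reach steady state, and current amplitude and kinetics were expressed relative to control (100%).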

CYP2D6 = biological target: T2, CYP2D6 (Homo sapiens, UniProt P10635); assay: CYP inhibition assay in human liver microsome, CYP2D6; assay type: in vitro ADME; conditions: human, human liver microsomes, probe dextromethorphan 5 μM, substrate dextromethorphan 5 μM, second value of 2C9/2D6/3A4
T2 construct: tissue BD-Gentest 452117; host or cells: human liver microsomes
Experimental: This is a high throughput screening assay used for assessment of reversible inhibition of CYP2C9, CYP2D6, and CYP3A4 activity of test compounds in human liver microsome (HLM) in early discovery stage.
10 mM DMSO stock solutions of test compounds were diluted in DMSO to generate 2 mM intermediate stock solution. 250 nL, of intermediate stock solution were transferred in duplicate into 3 separate 384 well microtitre plates (assay-ready plates). A mixture of HLM and each substrate was made up. 45 μL of HLM substrate mix was then transferred to each well of an assay ready plate and mixed. The negative (solvent) and positive controls (standard inhibitor for each CYP) were included in each assay ready plate. The assay ready plate was warmed to 37° C. in an incubator over 10 minutes. 5 μL pre-warmed NADPH regenerating system was added to each incubation well to start the reaction. Final incubation volume was 50 μL. The assay plate then was placed back in the 37° C. incubator. After incubation (10 minutes for CYP2D6) for 5 minutes, incubates were quenched by addition of 50 μL 100% acetonitrile containing internal standards (400 ng/mL 13C6-4′-OH-Diclofenac, 20 ng/mL D3-Dextrorphan and 20 ng/mL D4-1′OH-Midazolam). The supernatants were collected for RapidFire/MS/MS analysis.
RapidFire online solid phase extraction/sample injection system (Agilent) coupled with API4000 triple quadrupole mass spectrometer (AB Sciex) were used for sample analysis. The mobile phase composed of acetonitrile and water supplemented with 0.1% formic acid. A C4 solid phase extraction cartridge is used for sample separation. MS detection is achieved in positive ion MRM mode.
Peak areas for substrate, metabolite and internal standard are determined using the RapidFire integrator software (version 3.6.12009.12296). Peak area ratios (PAR) of metabolite and internal standard (stable-labelled metabolite) are then calculated. The measurement window for each experiment is then defined:
PAR (0% activity)=average PAR for all incubations containing concentrated inhibitor; Par (100% activity)=average PAR for all incubations containing no inhibitor (DMSO controls); % Activity (test inhibitor)=[PAR (test inhibitor)−PAR (0% activity)]/[PAR (100% activity)−PAR (0% activity)]; % Inhibition (test inhibitor)=100-% Activity (test inhibitor).

T1 sequence (Q12809 whole entry): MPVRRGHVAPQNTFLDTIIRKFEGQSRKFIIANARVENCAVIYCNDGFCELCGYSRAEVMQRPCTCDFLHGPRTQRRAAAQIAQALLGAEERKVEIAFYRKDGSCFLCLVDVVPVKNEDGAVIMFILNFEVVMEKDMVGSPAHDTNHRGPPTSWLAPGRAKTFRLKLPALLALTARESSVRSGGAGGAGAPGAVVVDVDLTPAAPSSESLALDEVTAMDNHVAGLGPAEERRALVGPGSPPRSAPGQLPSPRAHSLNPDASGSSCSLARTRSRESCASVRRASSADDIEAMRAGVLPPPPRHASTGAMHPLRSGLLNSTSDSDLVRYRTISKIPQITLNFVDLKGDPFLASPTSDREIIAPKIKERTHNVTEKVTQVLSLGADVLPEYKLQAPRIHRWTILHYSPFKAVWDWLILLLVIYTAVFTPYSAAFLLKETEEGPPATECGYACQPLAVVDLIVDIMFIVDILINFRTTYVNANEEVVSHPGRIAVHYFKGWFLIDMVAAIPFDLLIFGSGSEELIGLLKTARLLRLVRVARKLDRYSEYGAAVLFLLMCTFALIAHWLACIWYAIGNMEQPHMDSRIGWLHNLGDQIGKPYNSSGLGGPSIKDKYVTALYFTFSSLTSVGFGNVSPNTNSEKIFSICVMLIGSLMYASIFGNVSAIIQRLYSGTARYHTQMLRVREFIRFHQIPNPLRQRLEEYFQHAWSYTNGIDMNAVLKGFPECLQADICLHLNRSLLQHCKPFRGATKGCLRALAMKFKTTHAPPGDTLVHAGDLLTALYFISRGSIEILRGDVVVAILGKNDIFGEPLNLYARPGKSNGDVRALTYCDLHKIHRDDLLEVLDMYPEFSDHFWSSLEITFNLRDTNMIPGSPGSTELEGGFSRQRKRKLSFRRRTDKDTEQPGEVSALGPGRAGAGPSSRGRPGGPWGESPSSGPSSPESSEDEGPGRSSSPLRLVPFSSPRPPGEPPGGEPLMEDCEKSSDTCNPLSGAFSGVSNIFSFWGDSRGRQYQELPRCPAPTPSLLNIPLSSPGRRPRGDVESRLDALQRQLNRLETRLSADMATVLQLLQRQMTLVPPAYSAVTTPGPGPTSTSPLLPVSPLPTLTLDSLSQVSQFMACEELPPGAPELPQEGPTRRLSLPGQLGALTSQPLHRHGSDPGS
T2 sequence (P10635 whole entry): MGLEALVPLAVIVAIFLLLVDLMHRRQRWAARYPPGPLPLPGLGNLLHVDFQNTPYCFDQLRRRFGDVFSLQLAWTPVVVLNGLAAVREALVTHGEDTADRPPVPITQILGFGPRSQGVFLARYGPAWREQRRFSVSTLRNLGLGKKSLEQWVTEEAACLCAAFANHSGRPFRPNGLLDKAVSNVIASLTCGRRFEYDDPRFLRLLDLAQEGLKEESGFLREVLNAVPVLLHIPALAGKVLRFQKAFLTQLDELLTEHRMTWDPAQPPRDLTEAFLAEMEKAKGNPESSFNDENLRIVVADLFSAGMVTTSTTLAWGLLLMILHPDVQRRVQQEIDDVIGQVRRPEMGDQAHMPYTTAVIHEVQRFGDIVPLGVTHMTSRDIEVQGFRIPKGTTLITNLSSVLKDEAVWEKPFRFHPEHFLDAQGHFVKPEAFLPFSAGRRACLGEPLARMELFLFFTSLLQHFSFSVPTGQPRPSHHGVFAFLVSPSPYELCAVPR

Row | SMILES | inhibition at 10 min, 10 µM (CYP2D6) [%] | IC20 (hERG channel) [µM] | IC50 (hERG channel) [µM] | hERG IC20/TLR7 IC50 (hERG channel) | hERG IC20/TLR8 IC50 (hERG channel) | hERG IC20/TLR9 IC50 (hERG channel)
1 | CO[C@H]1CN(c2cc(C)nc(N3CCN(C[C@H]4CN(c5ccc(C#N)c6nccnc56)C[C@@H](C)O4)CC3)n2)C[C@@H]1N [Example 104, 8-[(2S,6R)-2-[[4-[4-[(3S,4S)-3-amino-4-methoxy-pyrrolidin-1-yl]-6-methyl-pyrimidin-2-yl]piperazin-1-yl]methyl]-6-methyl-morpholin-4-yl]quinoxaline-5-carbonitrile] | 15 | > 10 | > 20 | >454 | >10000 | >142
2 | Cc1cc(N2CCNCC2)nc(N2CCN(C[C@H]3CN(c4ccc(C#N)c5nccnc45)C[C@@H](C)O3)CC2)n1 [Example 114, 8-[(2R,6S)-2-methyl-6-[[4-(4-methyl-6-piperazin-1-yl-pyrimidin-2-yl)piperazin-1-yl]methyl]morpholin-4-yl]quinoxaline-5-carbonitrile] | 32 | > 10 | > 20 | >3333 | >10000 | >161
3 | [2H]c1nc2c(C#N)ccc(N3C[C@H](CN4CCN(c5nc(C)cc(N6CC(N)C6)n5)CC4)O[C@H](C)C3)c2nc1[2H] [Example 124, 8-[(2S,6R)-2-[[4-[4-(3-aminoazetidin-1-yl)-6-methyl-pyrimidin-2-yl]piperazin-1-yl]methyl]-6-methyl-morpholin-4-yl]-2,3-dideuterio-quinoxaline-5-carbonitrile] | 9.5 | > 10 | > 20 | >2000 | >10000 | >322
4 | [2H]c1ccc2c(N3C[C@H](CN4CCN(c5ccc(N6CC(C)(N)C6)nc5)CC4)O[C@H](C)C3)ccc(C#N)c2n1 [Example 132, 5-[(2S,6R)-2-[[4-[6-(3-amino-3-methyl-azetidin-1-yl)-3-pyridyl]piperazin-1-yl]methyl]-6-methyl-morpholin-4-yl]-2-deuterio-quinoline-8-carbonitrile] | -2.5 | > 10 | > 20 | >434 | >625 | >71
5 | [2H]c1ccc2c(N3C[C@H](CN4CCN(c5ccc(N6C[C@@H](N)[C@H](OC)C6)nc5)CC4)O[C@H](C)C3)ccc(C#N)c2n1 [Example 143, 5-[(2S,6R)-2-[[4-[6-[(3R,4R)-3-amino-4-methoxy-pyrrolidin-1-yl]-3-pyridyl]piperazin-1-yl]methyl]-6-methyl-morpholin-4-yl]-2-deuterio-quinoline-8-carbonitrile] | -30 | > 10 | > 20 | >476 | >1250 | >212
6 | C[C@@H]1CN(c2ccc(C#N)n3ncc(F)c23)C[C@H](CN2CCN(c3ccc(N4CC(C)(N)C4)nc3)CC2)O1 [Example 154, 4-[(2S,6R)-2-[[4-[6-(3-amino-3-methyl-azetidin-1-yl)-3-pyridyl]piperazin-1-yl]methyl]-6-methyl-morpholin-4-yl]-3-fluoro-pyrazolo[1,5-a]pyridine-7-carbonitrile] | -10.5 | > 10 | > 20 | >312 | >200 | >89
7 | C[C@@H]1CN(c2ccc(C#N)n3ncc(F)c23)C[C@H](CN2CC(c3ccc(N4CC(C)(N)C4)cc3)C2)O1 [Example 160, 4-[(2S,6R)-2-[[3-[4-(3-amino-3-methyl-azetidin-1-yl)phenyl]azetidin-1-yl]methyl]-6-methyl-morpholin-4-yl]-3-fluoro-pyrazolo[1,5-a]pyridine-7-carbonitrile] | 17 |  |  |  |  | 

Second part, led by results:

Row | inhibition at 10 min, 10 µM (CYP2D6) [%] | SMILES | IC20 (hERG channel) [µM] | IC50 (hERG channel) [µM] | hERG IC20/TLR7 IC50 (hERG channel) | hERG IC20/TLR8 IC50 (hERG channel) | hERG IC20/TLR9 IC50 (hERG channel)
8 | 1 | [2H]c1ccc2c(N3C[C@H](CN4CCN(c5ccc(N[C@H]6CNC[C@H]6F)nc5)CC4)O[C@H](C)C3)ccc(C#N)c2n1 [Example 162, 2-deuterio-5-[(2S,6R)-2-[[4-[6-[[(3S,4R)-4-fluoropyrrolidin-3-yl]amino]-3-pyridyl]piperazin-1-yl]methyl]-6-methyl-morpholin-4-yl]quinoline-8-carbonitrile] |  |  |  |  | 
9 | 6.5 | C[C@@H]1CN(c2ccc(C#N)n3nccc23)C[C@H](CN2CC(c3ccc(N4CC(C)(N)C4)cc3)C2)O1 [Example 163, 4-[(2S,6R)-2-[[3-[4-(3-amino-3-methyl-azetidin-1-yl)phenyl]azetidin-1-yl]methyl]-6-methyl-morpholin-4-yl]pyrazolo[1,5-a]pyridine-7-carbonitrile] |  |  |  |  | 
10 | 26 | CO[C@@H]1CN(c2ccc(C3CN(C[C@H]4CN(c5ccc(C#N)n6ncc(F)c56)C[C@@H](C)O4)C3)cn2)C[C@H]1N [Example 164, 4-[(2S,6R)-2-[[3-[6-[(3R,4R)-3-amino-4-methoxy-pyrrolidin-1-yl]-3-pyridyl]azetidin-1-yl]methyl]-6-methyl-morpholin-4-yl]-3-fluoro-pyrazolo[1,5-a]pyridine-7-carbonitrile] |  |  |  |  | 
11 | 17.5 | C[C@@H]1CN(c2ccc(C#N)n3ncc(F)c23)C[C@H](CN2CC(c3ccc(N4C[C@@H]5C[C@H]4CN5)nc3)C2)O1 [Example 165, 4-[(2S,6R)-2-[[3-[6-[(1S,4S)-2,5-diazabicyclo[2.2.1]heptan-2-yl]-3-pyridyl]azetidin-1-yl]methyl]-6-methyl-morpholin-4-yl]-3-fluoro-pyrazolo[1,5-a]pyridine-7-carbonitrile] |  |  |  |  | 
12 | 20 | CO[C@@H]1CN(c2ccc(N3CCN(C[C@H]4CN(c5ccc(C#N)n6ncc(F)c56)C[C@@H](C)O4)CC3)cn2)C[C@H]1N [Example 166, 4-[(2S,6R)-2-[[4-[6-[(3R,4R)-3-amino-4-methoxy-pyrrolidin-1-yl]-3-pyridyl]piperazin-1-yl]methyl]-6-methyl-morpholin-4-yl]-3-fluoro-pyrazolo[1,5-a]pyridine-7-carbonitrile] | 8 | > 20 | 380 | 258 | 173
